# Measurements as given in patent publication US6582714B1, “Article for insert control by passive evaporation of an active ingredient” (priority 1995, dated 2003).
# What was measured:
# A. aegypti mosquitoes [1] = experiment: Chamber test, second series (small blower, 0.06 m^3 per minute); assay type: in vivo
# From the text: (§1) The chamber test protocol was developed to realistically model actual use conditions for the insect control article of the invention. A closed, generally featureless, approximately 28 m^3, box-like test chamber is used, the size of a small room. Six mosquito knock-down cages are distributed vertically within the test chamber, suspended from poles adjacent to opposite test chamber side walls, where they can be observed from outside the test chamber through chamber windows. Mosquitoes in the cages are observed during a test to evaluate the ability of a material being tested to knock down mosquitoes. An insect “knocked down” is one that is incapable of flying and usually is moribund in appearance. The insect may or may not actually be dead. The knock-down cages are cylindrical, approximately 6 cm long and 8 cm in diameter, and have screened but otherwise open ends.
# (§2) Two repellency mosquito cages are also provided. The repellency cages are box-like screened cages, approximately 73 cm long and 16 cm square in cross section. All of the walls of the repellency cages are screened but otherwise generally open. Each repellency cage is divided by a clear plastic partition into a first holding area, which occupies approximately 45 cm of the length of the cage, and a second holding area, which occupies the remaining 28 cm. The plastic partition has a 4 cm diameter hole in its center that provides the only route by which mosquitoes may pass between the two holding areas. The repellency cages are mounted in a test chamber wall, with the plastic partition located in the plane of the test chamber wall, and are so oriented that the first holding area projects inwardly, into the test chamber, while the second holding area projects through the test chamber wall, out into normal room air.
# (§3) A mouse cage essentially identical to a mosquito knock-down cage is mounted on the end of the first holding chamber of each repellency test cage that faces toward the interior of the test chamber. The mouse cage is separated from the repellency cage only by a mosquito-proof screen. One mouse is placed in the mouse cage during a test to provide an attractant for mosquitoes being held in the repellency test cage. Mosquitoes in the first holding area of a repellency cage thus are attracted toward the mouse, on the one hand, and repelled by the insect control article being tested, on the other hand.
# (§4) When a test is run, fifty female mosquitoes are placed in the first holding area of each mosquito cage, with the partition hole closed by a removable door. Ten female mosquitoes are placed in each knock-down cage. The insect control article to be tested is placed centrally within the test chamber and the air flow is initiated. At timed intervals up to a total testing period of two hours, each knock-down cage and each repellency cage is visually examined, and the location, number, and condition of the mosquitoes are noted. The number of mosquitoes that have been driven to the second holding area provides a measure of the repellency of the insect control article being tested. The number of mosquitoes knocked down in the knock-down cages is also recorded. The general success of an insect control article is judged by both the mosquitoes repelled and those knocked down, in that both effects reduce the total number of mosquitoes available for biting.
# In an additional series of tests using the chamber protocol, two insect control active ingredients were tested for their ability to achieve the preferred practical control level, defined above. The experiment of the first series was substantially repeated except that the substrate was a 0.5 cm thick, 4.5 cm diameter coil of common corrugated cardboard, with the channels of the corrugation presented endwardly to the direction of air flow. […]
# [2] = Volatility index calculation (concentration in air from vapor pressure); assay type: physicochemical; details: for CONCENTRATION IN AIR: calculated from vapor pressure by ideal gas equation, 20 to 25° C.; for VOLATILITY INDEX: concentration in the air relative to DEET at 20 to 25° C.
# A. aegypti mosquitoes [3] = experiment: Activity index calculation (volatility index x weight index); details: volatility index multiplied by weight index; DEET = 1.00
# Method: The “activity index” is obtained by the multiplying the volatility index and the weight index. The activity index is an attempt to predict the combined effect of volatility and potency by weight in the usefulness of an insect control active ingredient for insect control of flying insects by passive evaporation. The following activity indices were calculated from the volatility and weight indices given, above: […]
# A. aegypti mosquitoes [4] = experiment: Olfactometer test (repellency from target air stream); assay type: in vivo; details: for mg to reach RD90: dose at which 90% of control population driven from target, 28 x 10 cm filter paper, female mosquitoes; for WEIGHT INDEX: ratio of weight of ingredient versus weight of DEET to achieve RD90, 25° C.
# From the text: The olfactometer test provides a means for measuring the effect of a volatile active ingredient on flying insects under precisely controlled conditions. Mosquitoes are used as the test insect. In this and the other Examples, below, the mosquitoes were A. aegypti. The olfactometer used for the olfactory tests described below generates two uniform, laminar flow air streams. These air streams consist of a target air stream superimposed upon and centered within a carrier air stream.
# The olfactometer provides a square testing surface with an area of 929 cm^2. The testing area consists of a circular target area of 42 cm^2 centered on a square background surface area of 887 cm^2. In the tests described, a 200 ml/min flow of carbon dioxide was introduced into the carrier air stream to activate the mosquitoes. […] The flow rate of the carrier air stream was 300 to 350 liters/min. […] Elevated temperature and humidity at the level described for the target air stream are known to be attractive to mosquitoes. The flow rate of the target air stream was 12 liters/min.
# The olfactometer has an air flow duct through which the carrier air flow strewn passes. A glass cylinder having one closed and one open end, an internal diameter of 6 cm and a depth of 14 cm is located within the air flow duct, with the longitudinal axis of the glass cylinder oriented parallel to the direction of flow of the carrier air flow stream, with the open end of the cylinder pointing down stream. The target air stream is generated by releasing a flow of temperature and humidity conditioned air into the glass cylinder near its closed end, from which point the air flows the length of the glass cylinder to exit at its open end.
# Active insect control ingredients to be tested are impregnated in a filter paper test substrate (Grade 615 from VWR Scientific Inc.) having a length of 28 cm and a width of 10 cm. The filter paper test substrate is folded into a fluted cylinder and inserted coaxially within the glass cylinder to rest at a location between the point where the air is released into the glass cylinder and the open end of the glass cylinder. By this arrangement, the target air stream is caused to pass over the surface of the filter paper test substrate so that any active insect control ingredient present in the filter paper test substrate may evaporate into the target air stream before the target air stream exits the glass cylinder to continue, embedded within the flow of the carrier air stream.
# Cubic test cages having 30.5 cm edges were constructed of four glass panels, with two opposing sides of the cubic test cages being open. One open side was designated the test panel and was covered with an airflow-transmitting, mosquito-retaining mesh. The opposite open side was covered with a closeable sleeve made of a tubular, open-weave, mosquito-retaining fabric well known in the art as “stockinet.” For any given test, the test cage normally contained from 250 to 350 female mosquitoes.
# The test cage was placed in the air stream with the test panel facing and perpendicular to the direction of flow of the air streams of the olfactometer. In order to allow the mosquitoes to become activated by the carbon dioxide of the air streams, the test cage first was placed in the olfactometer for an initial 5 minute conditioning exposure. The test cage then was removed from the olfactometer for 3 minutes and then placed back in the olfactometer for a second 5 minute conditioning exposure. The test cage was again removed from the olfactometer for 3 minutes, during which time a control filter paper test substrate was inserted within the glass cylinder of the olfactometer. The test cage was then placed on the olfactometer for a 10 minute control exposure. The same procedure was repeated, using each time a filter paper test substrate impregnated with increasing amounts of active insect control ingredient. […]
# A. aegypti mosquitoes [5] = experiment: Chamber test, first series (box fan), mosquito repellency and knock-down; assay type: in vivo; details: at least 50% repellency within 20 minutes with not more than a gram
# From the text: as §1, §2, §3, §4
# Two series of tests were run using the chamber test protocol to evaluate the effect of insect control articles made in accordance with the invention. […]
# [6] = 0.072 gm applied directly to the nine blades of the small blower, 0.06 m^3 per minute, two hour testing period
# [7] = 0.5 cm thick, 4.5 cm diameter corrugated cardboard coil, blower 0.06 m^3 per minute, two hour test, NA = not achieved
SMILES,KD50 (A. aegypti mosquitoes [1]; [6]),RD50 (A. aegypti mosquitoes [1]; [6]),RD90 (A. aegypti mosquitoes [1]; [6]),Minutes to KD50 (A. aegypti mosquitoes [1]; [7]) [min],Minutes to RD50 (A. aegypti mosquitoes [1]; [7]),Minutes to RD90 (A. aegypti mosquitoes [1]; [7]) [min],CONCENTRATION IN AIR [2],VOLATILITY INDEX [2],ACTIVITY INDEX (A. aegypti mosquitoes [3]),mg to reach RD90 (A. aegypti mosquitoes [4]),WEIGHT INDEX (A. aegypti mosquitoes [4]),practical insect control as defined (minimum practical control standard) (A. aegypti mosquitoes [5])
CC1(C)[C@H](C=C(Cl)Cl)[C@H]1C(=O)OCc1c(F)c(F)cc(F)c1F [Transfluthrin],never achieved,never achieved,never achieved,20,30 min,80,6.09 × 10^−8 grams per liter,0.0035,0.00002,0.57 milligrams/filter paper test substrate,0.0059,achieved
C#CCC1=C(C)C(OC(=O)C2C(C=C(C)C)C2(C)C)CC1=O (stereo not shown) [Prallethrin],–,–,–,–,failed to achieve,–,5.80 × 10^−7 grams per liter,0.034,0.0020,5.5 milligrams/filter paper test substrate,0.058,achieved
